# Source: patent US8846673B2, “Azaindazoles as kinase inhibitors and use thereof” (Bristol-Myers Squibb Company, priority 2009, dated 2014)
# Target: Btk (pY551) in Ramos cells (Homo sapiens (Human), UniProt Q06187)
# Assay: Btk Phosphorylation Assay
# Type: cell-based
# Details: 1 hr preincubation, stimulated with anti-human IgM+IgG 50 μg/mL for 2 min
# Experimental: Btk Phosphorylation Assay
# Ramos cells (˜6×10^6 cells/10 were incubated in the presence of Btk inhibitors for 1 hr at 37° C. before being stimulated with anti-human IgM+IgG (F(ab′)2 fragment, Jackson ImmunoResearch, Catalog No. 109-006-127) at 50 μg/mL for exactly 2 min at 37° C. Cells were immediately fixed by adding an equal volume of pre-warmed BD Phosflow Fix buffer I (BD Biosciences, catalog number 557870) to the cell suspension. After incubating at 37° C. for 10 minutes, the cells were washed once with 3 mL FACS washing buffer (1% FBS/PBS) and permeabilized by adding 0.5 mL of cold BD Phosflow Penn Buffer III (BD Biosciences, Catalog No. 558050) and incubating for 30 minutes on ice. The cells were washed an additional two times with 3 mL BD FACS washing buffer, re-suspended in 100 μL FACS washing buffer, stained with 20 μL, Alexa647 anti-Btk (pY551) (BD Biosciences, Catalog No. 558134), incubated at room temperature for 30 minutes in the dark, and washed once with 3 ml of FACS washing buffer. The cells were re-suspended in 400 μl FACS wash buffer and analyzed using FACSCalibur (BD Biosciences). Median fluorescent intensity (MFI) on Alexa 647 (FL-4) data were collected and used for calculations of inhibition.
# Sequence of Btk (pY551) in Ramos cells (Q06187 whole entry): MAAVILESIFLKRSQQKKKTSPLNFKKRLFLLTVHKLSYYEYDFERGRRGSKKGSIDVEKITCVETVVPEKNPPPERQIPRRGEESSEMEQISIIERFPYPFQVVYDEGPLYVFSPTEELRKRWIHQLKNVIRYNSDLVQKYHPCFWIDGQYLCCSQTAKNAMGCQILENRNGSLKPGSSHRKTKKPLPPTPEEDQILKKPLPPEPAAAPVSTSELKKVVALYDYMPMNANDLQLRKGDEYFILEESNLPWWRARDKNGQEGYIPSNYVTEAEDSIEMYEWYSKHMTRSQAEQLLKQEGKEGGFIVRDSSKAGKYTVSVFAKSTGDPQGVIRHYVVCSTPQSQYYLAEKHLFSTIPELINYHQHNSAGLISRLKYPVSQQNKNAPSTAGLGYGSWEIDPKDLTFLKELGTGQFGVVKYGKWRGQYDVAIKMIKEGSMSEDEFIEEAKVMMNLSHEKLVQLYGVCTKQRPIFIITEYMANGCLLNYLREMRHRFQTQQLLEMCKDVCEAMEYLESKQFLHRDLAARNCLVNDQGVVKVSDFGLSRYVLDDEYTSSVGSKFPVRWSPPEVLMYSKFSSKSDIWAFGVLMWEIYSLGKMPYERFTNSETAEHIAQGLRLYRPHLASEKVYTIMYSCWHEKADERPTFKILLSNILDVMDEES
row,SMILES,IC50 [nM]
1,"Nc1n[nH]c2nccc(-c3ccc(Oc4ccccc4)cc3)c12 [Example 6, 4-(4-Phenoxyphenyl)-1H-pyrazolo[3,4-b]pyridin-3-amine]",320

# Target: human recombinant Btk (Homo sapiens (Human), UniProt Q06187)
# Sequence (Q06187 whole entry): as above
# Assay: Human Recombinant Btk Enzyme Assay (LLE_Btk)
# Type: biochemical
# Details: human recombinant Btk 1 nM, ATP 20 μM, 60 min room temperature
# Experimental: Human Recombinant Btk Enzyme Assay
# After incubating at room temperature for 60 min, the reaction was terminated by adding 45 μl of 35 mM EDTA to each sample. The reaction mixture was analyzed on the Caliper LABCHIP® 3000 (Caliper, Hopkinton, Mass.) by electrophoretic separation of the fluorescent substrate and phosphorylated product. […] Compounds were dissolved at 10 mM in dimethylsulfoxide (DMSO) and evaluated at eleven concentrations.
row,SMILES,IC50 [nM]
1,"Cc1cccc(Oc2ccc(-c3cc(C4CCCC4)nc4[nH]nc(N)c34)cc2)c1 [Example 5, 6-Cyclopentyl-4-(4-(3-methylphenoxy)phenyl)-1H-pyrazolo[3,4-b]pyridin-3-amine]",290
2,"Cc1csc(NC(=O)NC2CCN(c3cc(-c4ccc(Oc5ccccc5)cc4)c4c(N)n[nH]c4n3)C2)n1 (stereo not drawn) [Example 31, 1-(1-(3-Amino-4-(4-phenoxyphenyl)-1H-pyrazolo[3,4-b]pyridin-6-yl)-3-pyrrolidinyl)-3-(4-methyl-1,3-thiazol-2-yl)urea]",9410
3,"CC(C)Oc1ccc(-c2cncc3[nH]nc(N)c23)cc1 [Example 43, 4-(4-Isopropoxyphenyl)-1H-pyrazolo[3,4-c]pyridin-3-amine]",9310
4,"Nc1n[nH]c2cncc(-c3ccc(OC4CCCC4)cc3)c12 [Example 44, 4-(4-(Cyclopentyloxy)phenyl)-1H-pyrazolo[3,4-c]pyridin-3-amine]",9490
5,"Nc1n[nH]c2cncc(-c3ccc(C(=O)N4CCCC4)cc3)c12 [Example 47, 4-(4-(1-Pyrrolidinylcarbonyl)phenyl)-1H-pyrazolo[3,4-c]pyridin-3-amine]",40600
6,"Nc1n[nH]c2c(-c3ccc(NC(=O)c4ccccc4)cc3)ncc(-c3ccc(Oc4ccccc4)cc3)c12 [Example 61, N-(4-(3-Amino-4-(4-phenoxyphenyl)-1H-pyrazolo[3,4-c]pyridin-7-yl)phenyl)benzamide]",14900
7,"CS(=O)(=O)Nc1cccc(-c2ncc(-c3ccc(Oc4ccccc4)cc3)c3c(N)n[nH]c23)c1 [Example 62, N-(3-(3-Amino-4-(4-phenoxyphenyl)-1H-pyrazolo[3,4-c]pyridin-7-yl)phenyl) methanesulfonamide]",270
8,"Nc1n[nH]c2c(-c3ccc(Cl)c(Cl)c3)ncc(-c3ccc(Oc4ccccc4)cc3)c12 [Example 82, 7-(3,4-Dichlorophenyl)-4-(4-phenoxyphenyl)-1H-pyrazolo[3,4-c]pyridin-3-amine]",9180
9,"Nc1n[nH]c2c(-c3ccc4[nH]ccc4c3)ncc(-c3ccc(Oc4ccccc4)cc3)c12 [Example 95, 7-(1H-Indol-5-yl)-4-(4-phenoxyphenyl)-1H-pyrazolo[3,4-c]pyridin-3-amine]",250
10,"CS(=O)(=O)Nc1ccc(-c2ncc(-c3ccc(Oc4ccccc4)cc3)c3c(N)n[nH]c23)cc1 [Example 96, N-(4-(3-Amino-4-(4-phenoxyphenyl)-1H-pyrazolo[3,4-c]pyridin-7-yl)phenyl)methanesulfonamide]",280
11,"CC(C)COc1cccc(-c2ncc(-c3ccc(Oc4ccccc4)cc3)c3c(N)n[nH]c23)c1 [Example 102, 7-(3-Isobutoxyphenyl)-4-(4-phenoxyphenyl)-1H-pyrazolo[3,4-c]pyridin-3-amine]",14000
12,"Cc1ccccc1-c1ncc(-c2ccc(Oc3ccccc3)cc2)c2c(N)n[nH]c12 [Example 107, 7-(2-Methylphenyl)-4-(4-phenoxyphenyl)-1H-pyrazolo[3,4-c]pyridin-3-amine]",12700
13,"Nc1n[nH]c2c(-c3cccc(C(F)(F)F)c3)ncc(-c3ccc(Oc4ccccc4)cc3)c12 [Example 108, 4-(4-Phenoxyphenyl)-7-(3-(trifluoromethyl)phenyl)-1H-pyrazolo[3,4-c]pyridin-3-amine]",16100
14,"Nc1n[nH]c2c(-c3cccc(OC(F)(F)F)c3)ncc(-c3ccc(Oc4ccccc4)cc3)c12 [Example 113, 4-(4-Phenoxyphenyl)-7-(3-(trifluoromethoxy)phenyl)-1H-pyrazolo[3,4-c]pyridin-3-amine]",13800
15,"Nc1n[nH]c2nc(-c3cccs3)nc(-c3ccc(Oc4ccccc4)cc3)c12 [Example 120, 4-(4-Phenoxyphenyl)-6-(2-thienyl)-1H-pyrazolo[3,4-δ]pyrimidin-3-amine]",240
16,"COc1cccc(-c2cnc(Nc3ccccc3)c3[nH]nc(N)c23)c1 [Example 128, 4-(3-Methoxyphenyl)-N^7-phenyl-1H-pyrazolo[3,4-c]pyridine-3,7-diamine]",290
17,"COc1cccc(-c2cnc(Nc3ccccc3Cl)c3[nH]nc(N)c23)c1 [Example 130, N^7-(2-Chlorophenyl)-4-(3-methoxyphenyl)-1H-pyrazolo[3,4-c]pyridine-3,7-diamine]",230
18,"COc1ccc(-c2cnc(Nc3ccccc3C)c3[nH]nc(N)c23)cc1 [Example 132, 4-(4-Methoxyphenyl)-N^7-(2-methylphenyl)-1H-pyrazolo[3,4-c]pyridine-3,7-diamine]",260
19,"Cc1ccccc1Nc1ncc(-c2cccc(OC(C)C)c2)c2c(N)n[nH]c12 [Example 137, 4-(3-Isopropoxyphenyl)-N^7-(2-methylphenyl)-1H-pyrazolo[3,4-c]pyridine-3,7-diamine]",240
20,"Nc1n[nH]c2cc(-c3ccc(-c4nnn[nH]4)cc3)nc(-c3ccc(Oc4ccccc4)cc3)c12 [Example 223, 4-(4-Phenoxyphenyl)-6-(4-(1H-tetrazol-5-yl)phenyl)-1H-pyrazolo[4,3-c]pyridin-3-amine]",2
21,"Nc1n[nH]c2c(-c3ccccn3)cnc(-c3ccc(Oc4ccccc4)cc3)c12 [Example 225, 4-(4-Phenoxyphenyl)-7-(2-pyridinyl)-1H-pyrazolo[4,3-c]pyridin-3-amine]",1
22,"Nc1n[nH]c2cc(C3CCCN(C(=O)Nc4ccccc4)C3)nc(-c3ccc(Oc4ccccc4)cc3)c12 (stereo not drawn) [Example 236, 3-(3-Amino-4-(4-phenoxyphenyl)-1H-pyrazolo[4,3-c]pyridin-6-yl)-N-phenyl-1-piperidinecarboxamide]",3
23,"C=CC(=O)N1CCCC(c2cc3[nH]nc(N)c3c(-c3ccc(Oc4ccccc4)cc3)n2)C1 (stereo not drawn) [Example 237, 6-(1-Acryloyl-3-piperidinyl)-4-(4-phenoxyphenyl)-1H-pyrazolo[4,3-c]pyridin-3-amine]",4
24,"COC(=O)C(=O)N1CCCC(c2cc3[nH]nc(N)c3c(-c3ccc(Oc4ccccc4)cc3)n2)C1 (stereo not drawn) [Example 238, Methyl(3-(3-amino-4-(4-phenoxyphenyl)-1H-pyrazolo[4,3-c]pyridin-6-yl)-1-piperidinyl)(oxo)acetate]",2
25,"Nc1n[nH]c2cc(C3CCN(C(=O)Nc4ccccc4)CC3)nc(-c3ccc(Oc4ccccc4)cc3)c12 [Example 242, 4-(3-Amino-4-(4-phenoxyphenyl)-1H-pyrazolo[4,3-c]pyridin-6-yl)-N-phenyl-1-piperidinecarboxamide]",2
26,"CN(C)C(=O)Cn1ccc(Nc2cc3[nH]nc(N)c3c(-c3ccc(Oc4ccccc4)cc3)n2)n1 [Example 249, 2-(3-((3-Amino-4-(4-phenoxyphenyl)-1H-pyrazolo[4,3-c]pyridin-6-yl)amino)-1H-pyrazol-1-yl)-N,N-dimethylacetamide]",3
